Assay results published in patent US20070178045A1, “Cyclopeptide derivatives with anti-integrin activity” (priority 2004, published 2007).
Several values for one entry are separate records, joined by “and”; a condition that tells them apart may be missing. Equal values may be shown once.

Experiments:
purified αvβ5 receptor = target: T1, purified αvβ5 receptor (Homo sapiens, UniProt P06756+P18084); test: Binding to integrin αvβ5 receptors ([125I]echistatin competition); conditions: inhibition of [125I]echistatin 0.15 nM binding to purified αvβ5 receptor; read-out: αvβ5 IC50 ± SD
T1 construct: purchased Chemicon CC1020
Procedure: Binding to Integrin αvβ5 Receptors
(§1) An aliquot of 100 μl was added to 96-well plates and incubated overnight at +4° C. Plates were washed once with buffer (50 mM Tris, pH 7.4, 100 mM NaCl, 2 mM CaCl2, 1 mM MgCl2, 1 mM MnCl2, 1% bovine serum albumin) and then incubated for another 2 hours at room temperature. Plates were washed twice with the same buffer and incubated for 3 hours at room temperature with the radioactive ligand [^125I]echistatin (Amersham Pharmacia Biotech) 0.15 nM in the presence of competition ligands. At the end of incubation, the wells were washed and the radioactivity determined using a gamma counter (Packard). Non-specific ligand binding was determined in the presence of excess cold echistatin (1 μM).
(§2) Evaluation of IC50 Parameters
(§3) The IC50 parameter was elaborated using “ALLFIT” software.

purified αvβ3 receptor = target: T2, purified αvβ3 receptor (Homo sapiens, UniProt P05106+P06756); test: Binding to integrin αvβ3 receptors ([125I]echistatin competition); conditions: inhibition of [125I]echistatin 0.05 nM binding to purified αvβ3 receptor; read-out: αvβ3 IC50 ± SD
T2 construct: purchased Chemicon CC1020
Procedure: Binding to Integrin αvβ3 Receptors
as §1, with “0.05” for “0.15”, “Non-specific binding of the” for “Non-specific”, “ligand” for “ligand binding”
as §2, §3

[1] = system: A2780 human ovarian carcinoma; assay type: cell-based; conditions: read-out: A2780 IC50, μM 3 h of treatm., cell adhesion to vitronectin, A2780 high levels of αvβ5 integrins
Procedure: (§4) Adhesion Assay of Tumor Cells on Vitronectin
(§5) A2780 human ovarian carcinoma and PC3 prostate carcinoma cells were grown in RPMI 1640 containing 10% fetal bovine serum and 50 μg/ml gentamycin sulfate. A498 human renal carcinoma were grown in EMEM containing 10% fetal bovine serum and 50 μg/ml gentamycin sulfate. All the cells were maintained in a 37° C. incubator with saturated humidity and an atmosphere of 95% air and 5% CO2.
(§6) A2780 cell line expresses high levels of αvβ5 integrins, A498 high levels of αvβ3 integrins, and PC3 low levels of both integrins.
(§7) To test the effect of the drugs on cell adhesion, the appropriate cellular density (40000-50000 cells/well) for each tumor cell line was incubated with different concentrations of the compounds in 96-well tissue culture plates coated with vitronectin (5 μg/ml) and was allowed to attach for 3 hours. After this time the cells were washed once with PBS containing Ca^2+ e Mg^2+. Tumor cells were fixed with 4% paraformaldehyde for 10 min at room temperature and stained with 1% toluidine blue for 10 min at room temperature. Tumor cells were washed with bi-distilled water, dried and solubilized with 1% SDS. The number of adherent cells was determined in a microplate reader (Victor2, EG&G Wallac) at 600 nm.
(§8) An IC50 value as parameter to measure the inhibiting effect of the molecules on tumor cell adhesion to vitronectin was evaluated using “ALLFIT” computer program.

[2] = system: A498 human renal carcinoma; assay type: cell-based; conditions: read-out: A498 IC50, μM 3 h of treatm., cell adhesion to vitronectin, A498 high levels of αvβ3 integrins
Procedure: as §4, §5, §6, §7, §8

[3] = system: PC3 prostate carcinoma cells; assay type: cell-based, human; conditions: read-out: PC3 IC50, μM 3 h of treatm., cell adhesion to vitronectin, PC3 low levels of both integrins
Procedure: as §4, §5, §6
as §7, with “Tumor cells were washed with bi-distilled water, dried and solubilized with 1% SDS.” left out
as §8

Compound	IC50 (purified αvβ5 receptor) [nM]	IC50 (purified αvβ3 receptor)	IC50 [1] [µM]	IC50 [2] [µM]	IC50 [3] [µM]
N=C(N)NCCC[C@@H]1NC(=O)[C@H](Cc2ccc(CN)cc2)NC(=O)[C@@H](Cc2ccccc2)NC(=O)[C@H](CC(=O)O)NC(=O)CNC1=O [ST2581, c(Arg-Gly-Asp-D-Phe-Amp)]	3.4 ± 0.1	1.7 nM			
COCCOCCOCCOCC(=O)NCc1ccc(C[C@@H]2NC(=O)[C@@H](Cc3ccccc3)NC(=O)[C@H](CC(=O)O)NC(=O)CNC(=O)[C@H](CCCNC(=N)N)NC2=O)cc1 [ST2597, c[Arg-Gly-Asp-D-Phe-Amp(CO—CH2—(OCH2CH2)3—OCH3)]]	2.1 ± 0.07	13.5 ± 0.8 nM			
N=C(N)NCCC[C@@H]1NC(=O)[C@H](Cc2ccc(CNC(=O)CCC(=O)O)cc2)NC(=O)[C@@H](Cc2ccccc2)NC(=O)[C@H](CC(=O)O)NC(=O)CNC1=O [ST2649, c[Arg-Gly-Asp-D-Phe-Amp-(CH2)2COOH]]	5.1 ± 0.07	37.6 ± 0.9 nM	9.5 ± 1.9	34 ± 2.2	33.7 ± 7.8
N=C(N)NCCC[C@@H]1NC(=O)[C@H](Cc2ccc(CNC(=O)COCCOCCOCC(=O)O)cc2)NC(=O)[C@@H](Cc2ccccc2)NC(=O)[C@H](CC(=O)O)NC(=O)CNC1=O [ST2661, c[Arg-Gly-Asp-D-Phe-Amp-(CO—CH2—(O—CH2—CH2)2—O—CH2—COOH]]			12.3 ± 0.9	10.7 ± 0.4	18.8 ± 4.4
CN1C(=O)[C@@H](Cc2ccccc2)NC(=O)[C@H](CC(=O)O)NC(=O)CNC(=O)[C@H](CCCNC(=N)N)NC(=O)[C@@H]1Cc1ccc(CN)cc1 [ST2700, c(Arg-Gly-Asp-D-Phe-N-Me-Amp)]	0.99	7 nM and 7.2 nM			
N=C(N)NCCC[C@@H]1NC(=O)CN(Cc2ccc(CN)cc2)C(=O)[C@@H](Cc2ccccc2)NC(=O)[C@H](CC(=O)O)NC(=O)CNC1=O [ST2701, c(Arg-Gly-Asp-D-Phe-N-Amb-Gly)]	2.9 ± 0.1	36.7 ± 0.7 nM			
CC(C)[C@H]1C(=O)N[C@@H](CCCNC(=N)N)C(=O)NCC(=O)N[C@@H](CC(=O)O)C(=O)N[C@H](Cc2ccccc2)C(=O)N1CCCCCC(=O)O [ST2956, c[Arg-Gly-Asp-D-Phe-N(carboxypentilene)-Val)]]	34 ± 1.4	30 ± 0.9 nM			
C=CCOC(=O)CCCCCN1C(=O)[C@@H](Cc2ccccc2)NC(=O)[C@H](CC(=O)O)NC(=O)CNC(=O)[C@H](CCCNC(=N)N)NC(=O)[C@@H]1C(C)C [ST2957, c[Arg-Gly-Asp-D-Phe-N(allyloxycarbonylpentilene)-Val]]	38.3 ± 1.3	42.2 ± 0.7 nM			
